Experimental data reported in US20090203797A1, “Antimycotic Patch” (priority 2007, published 2009).
Counter-ions that a name gives are not always drawn.

Key:
[1] = from the interview form provided with 125 mg Lamisil Tablets; cited from earlier work
[2] = octanol/water partition coefficient logKo/w; type: physicochemical; conditions: 32° C., HPLC of each layer
Experimental: In the present invention, logKo/w is determined in the following manner. First, a drug is dissolved in a suitable amount of octanol (or water) at 32° C. followed by the further addition of an equal amount of water (or octanol) and mixing well. After the mixture divides into two layers, the concentration of drug in each layer is measured by HPLC and logKo/w is determined using the equation below. LogKo/w=log(drug concentration in octanol phase/drug concentration in aqueous phase)

SMILES | logKo/w value [1] | logP [2]
CN(C/C=C/C#CC(C)(C)C)Cc1cccc2ccccc12 [terbinafine hydrochloride] | 0.87 | –
CN(C/C=C/C#CC(C)(C)C)Cc1cccc2ccccc12 [terbinafine-base] | – | 5.8
